Structures are written as SMILES.

The species entered for one series is Macaca mulatta. Put plainly: Percentage recovery in rhesus monkey hepatic microsomal fractions under oxidative conditions after 1 hour. The note with it: liver microsomes. On the technique in general: Microsomes from liver hold many membrane-bound enzymes, among them those of drug oxidation.
Series [1] in a line: Percentage recovery in rat hepatic microsomal fractions under oxidative conditions after 1 hour. The format is ADME. The conditions noted are these: liver microsomes, read-out: Recovery.

For the compound `CS(=O)(=O)c1ccc(-c2c(-c3ccccc3)nc3sccn23)cc1`, the remaining at 1 h amounted to 65% in the series listed under Macaca mulatta and 75% in series [1].
